Data reported in the supplement of paper PMC10307832.

Key:
Experiment in all cases: relative viability (nuclei count vs DMSO), 5 days (fraction); higher = more cells survive
[1] = compound: CC[C@@H](C)CNCC(=O)N1CCC2=C([C@@H]1COC3=CC=CC(=C3)C)C=CS2 [RU-SKI 43] + Cc1cc(Nc2cc(N3CCN(C)CC3)nc(Sc3ccc(NC(=O)C4CC4)cc3)n2)n[nH]1 [Tozasertib] (partner 0.1 µM)
Procedure, shortened: (§1)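 Lung cancer cell lines, seeded in 1536-well plates, were treated the following day by pin tool with a single drug or with five library-drug doses (not always all listed) in √10 steps on top of a fixed anchor-drug dose. Cells were fixed and nuclei stained in one step after 5 days, and nuclei were counted. Relative viability is the nuclei count for treated wells divided by that for vehicle wells, reported as medians of duplicate plates.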

[2] = compound: CC[C@@H](C)CNCC(=O)N1CCC2=C([C@@H]1COC3=CC=CC(=C3)C)C=CS2 [RU-SKI 43] + O=C(CCCCCCC(=O)Nc1ccccc1)NO [Vorinostat] (partner 1 µM)
Procedure, shortened: as §1

[3] = compound: CCc1c2c(nc3ccc(OC(=O)N4CCC(N5CCCCC5)CC4)cc13)-c1cc3c(c(=O)n1C2)COC(=O)[C@]3(O)CC [Irinotecan] + C[C@]1(O)C[C@@H](c2nc(-c3ccc4ccc(-c5ccccc5)nc4c3)c3c(N)nccn32)C1 [Linsitinib] (partner 1 µM)
Procedure, shortened: as §1

[4] = compound: Cn1cc(-c2cnc3ccc4ccc(CS(=O)(=O)NCc5ccccn5)cc4c(=O)c3c2)cn1 [MK-8033] + N=C(N)NC(=N)NCCc1ccccc1 [Phenformin] (partner 250 µM)
Procedure, shortened: as §1

Cell Line	relative viability ([1]; first compound 0.1 µM)	relative viability ([1]; first compound 0.3162 µM)	relative viability ([1]; first compound 1 µM)	relative viability ([1]; first compound 3.162 µM)	relative viability ([1]; first compound 10 µM)	relative viability ([2]; first compound 0.1 µM)	relative viability ([2]; first compound 0.3162 µM)	relative viability ([2]; first compound 1 µM)	relative viability ([2]; first compound 3.162 µM)	relative viability ([2]; first compound 10 µM)	relative viability ([3]; first compound 0.6325 µM)	relative viability ([3]; first compound 2 µM)	relative viability ([3]; first compound 6.325 µM)	relative viability ([3]; first compound 20 µM)	relative viability ([4]; first compound 0.02 µM)	relative viability ([4]; first compound 0.06325 µM)	relative viability ([4]; first compound 0.2 µM)	relative viability ([4]; first compound 0.6325 µM)	relative viability ([4]; first compound 2 µM)
NCI-H23	0.394	0.393	0.347	0.455	0.297	0.473	0.602	0.571	0.587	0.48	0.607	0.339	0.248	0.281	0.795	0.81	0.715	0.857	0.814
NCI-H322M	0.516	0.502	0.47	0.518	0.394	0.83	0.925	0.911	0.998	0.782	0.551	0.467	0.366	0.414	0.779	0.662	0.698	0.936	0.749
NCI-H358	0.109	0.106	0.0941	0.103	0.0859	0.642	0.929	0.708	0.793	0.614	0.681	0.671	0.36	0.251	0.369	0.296	0.296	0.307	0.318
NCI-H441	0.597	0.542	0.541	0.736	0.554	0.752	0.97	0.97	0.741	0.849	0.547	0.339	0.241	0.341	0.997	0.739	0.645	0.955	0.732
NCI-H460	0.545	0.4	0.544	0.504	0.274	0.81	1.3	0.787	0.75	0.565	0.455	0.376	0.0862	0.0869	0.543	0.486	0.506	0.542	0.491
NCI-H520	0.456	0.422	0.428	0.401	0.408	0.77	0.745	0.788	0.704	0.646	0.821	0.737	0.302	0.212	0.766	0.424	0.503	0.639	0.542
NCI-H596	0.996	0.849	0.869	0.954	0.849	0.853	0.534	0.669	0.589	0.501	1.01	1	0.556	0.537	0.854	0.662	0.741	0.657	0.627
NCI-H647	0.262	0.261	0.227	0.231	0.262	0.543	0.948	0.573	0.731	0.527	1.03	0.329	0.178	0.15	0.508	0.448	0.509	0.546	0.549
NCI-H650	0.724	0.717	0.765	0.709	0.654	0.497	0.369		0.455	0.459	0.701	0.562	0.237	0.303	0.441	0.445	0.464	0.437	0.47
NCI-H661	0.345	0.349	0.345	0.335	0.365	0.752	0.984	0.815	0.777	0.736	0.583	0.476	0.334	0.256	0.26	0.254	0.27	0.267	0.292
NCI-H727	0.658	0.583	0.54	0.564	0.629		1.13	1.13	1.08	1.23	0.157	0.334	0.284	0.391	0.7		0.435	0.627	0.465
NCI-H838	0.243	0.242	0.273	0.258	0.254	0.745	0.842	0.733	0.744	0.633	1.17	0.849	0.372	0.228	0.622	0.572	0.524	0.555	0.543
NCI-H1355	0.516	0.617	0.618	0.562	0.447	0.725	0.704	0.645	0.701	0.615	0.671	0.403	0.2	0.201	0.444	0.401	0.424	0.435	0.432
NCI-H1395	0.866	0.694	0.774	0.789	0.692	0.844	0.602	1.07	0.611	0.91		0.804	0.484	0.29	0.448	0.412	0.43	0.45	0.416
NCI-H1437	0.362	0.34	0.443	0.379	0.38	0.839	0.958	0.84	0.798	0.671	0.61	0.593	0.28	0.142	0.293	0.291	0.291	0.324	0.267
NCI-H1651	0.649	0.722	0.839	0.642	0.572	0.617	0.573	0.676	0.559	0.548	0.803	0.542	0.203	0.159	0.429	0.29	0.346	0.312	0.304
NCI-H1666	0.495	0.596	0.571	0.525	0.435	0.953	1.08	1.13	0.997	0.799	0.71	0.414	0.403	0.384	0.588	0.598	0.548	0.612	0.527

Cell Line	relative viability ([1]; first compound 0.1 µM)	relative viability ([1]; first compound 0.3162 µM)	relative viability ([1]; first compound 1 µM)	relative viability ([1]; first compound 3.162 µM)	relative viability ([1]; first compound 10 µM)	relative viability ([2]; first compound 0.1 µM)	relative viability ([2]; first compound 0.3162 µM)	relative viability ([2]; first compound 1 µM)	relative viability ([2]; first compound 3.162 µM)	relative viability ([2]; first compound 10 µM)	relative viability ([3]; first compound 0.6325 µM)	relative viability ([3]; first compound 2 µM)	relative viability ([3]; first compound 6.325 µM)	relative viability ([3]; first compound 20 µM)	relative viability ([4]; first compound 0.02 µM)	relative viability ([4]; first compound 0.06325 µM)	relative viability ([4]; first compound 0.2 µM)	relative viability ([4]; first compound 0.6325 µM)	relative viability ([4]; first compound 2 µM)
NCI-H1734	0.238	0.217	0.276	0.258	0.267	0.821	0.833	0.81	0.852	0.701	0.797	0.355	0.155	0.195	0.435	0.338	0.366	0.361	0.37
NCI-H1755	0.622	0.651	0.602	0.571	0.496	0.746	0.862	0.848	0.809	0.859	0.927	0.396	0.303	0.366	0.603	0.572	0.605	0.682	0.653
NCI-H1793	0.333	0.321	0.344	0.324	0.281	0.799	0.742	0.872	0.792	0.602		0.609	0.272	0.341	0.383	0.284	0.316	0.394	0.293
NCI-H1915	0.435	0.516	0.38	0.469	0.4	0.563	0.602	0.639	0.54	0.549	0.374	0.238	0.187	0.171	0.356	0.315	0.373	0.391	0.376
NCI-H1944	0.251	0.27	0.257	0.251	0.23	0.548	0.623	0.522	0.499	0.513	0.819	0.38	0.241	0.249	0.186	0.159	0.19	0.198	0.181
NCI-H1975	0.755	0.852	0.854	0.712	0.574	0.736	0.781	0.749	0.723	0.618	1.1	0.803	0.326	0.204	0.409	0.417	0.405		0.364
NCI-H1993	0.566	0.569	0.585	0.588	0.564	0.717	0.969	0.769	1.08	0.659	0.688	0.608	0.643	0.693	0.591	0.469	0.497	0.537	0.488
NCI-H2009	0.725	0.896	0.727	0.64	0.504	0.692	0.757	0.751	0.693	0.679	0.876	0.493	0.262	0.221	0.524	0.476	0.456	0.482	0.463
NCI-H2023	0.32	0.438	0.516	0.424	0.218	0.742	0.918	0.772	0.815	0.602	0.714	0.503	0.198	0.0873	0.41	0.348	0.348	0.356	0.306
NCI-H2085	0.716	0.71	0.854	0.743	0.671	0.705	0.659	0.808	0.793	0.726	0.584	0.672	0.381	0.497	0.736	0.554	0.694	0.703	0.674
NCI-H2087	0.264	0.233	0.294	0.225	0.225	0.818	1.02	0.985	0.789	0.57	0.453	0.313	0.252	0.298	0.5	0.434	0.417	0.435	0.386
NCI-H2126	0.817	0.917	0.962	0.854	0.74	0.793	0.864	0.819	0.906	0.781		0.414	0.355	0.335	0.511	0.494	0.497	0.533	0.51
NCI-H2228	0.256	0.264	0.184	0.249	0.255	0.603	0.928	0.828	0.727	0.596	0.706	0.714	0.39	0.477	0.399	0.287	0.345	0.294	0.299
NCI-H2347	0.448	0.449	0.523	0.535	0.501	0.511	0.621	0.674	0.595	0.566	0.761	0.739	0.498	0.5	0.442	0.37	0.57	0.59	0.428
NCI-H2405	0.73	0.705	0.713	0.701	0.629	1.1	1.11	1.18	1.02	1		0.763	0.294	0.18	0.406	0.348	0.403	0.377	0.367
NCI-H3122	0.372	0.416	0.495	0.392	0.369	1.06	1.36	1.04	0.467	1.06	0.902	0.293	0.24	0.22	0.346	0.347	0.347	0.368	0.354
